Assay results from patent US20240425486A1, “FUSED BICYCLIC SUBSTITUTED N-(1H-INDOL-7-YL)BENZENESULFONAMIDES AND USES THEREOF” (Triana Biomedicines, Inc., priority 2021, published 2024).

Assays:
DCAF15/RBM39 = DCAF15/RBM39 (Homo sapiens (Human), UniProt Q14498+Q66K64); assay: AlphaLISA compound-induced DCAF15-RBM39 ternary complex formation; format: binding; conditions: His-tagged DCAF15 complex and biotin-carrying RBM39
Method: Example 7: Quantitative Evaluation of Compound-Induced Ternary Complex Formation Using Amplified Luminescent Proximity Homogeneous Assay
Compound-induced DCAF15-RBM39 ternary complex formation was monitored using AlphaLISA® assays (Perkin Elmer, Waltham, MA). Test compounds were first collected in a 384-well microplate (cat. #781280, Grenier Bio-One, Monroe, NC) as 2 mM stocks in 100% dimethyl sulfoxide (DMSO). These stocks were then serially diluted in DMSO by 3-fold into a new plate (cat. #781280, Grenier Bio-One, Monroe, NC) using a Mosquito HTS dispenser (Mosquito® HTS, SPT Labtech, Boston, MA). 0.2 μL of these diluted stocks were then dispensed into a 384-well Optiplate (cat. #6007290, Perkin Elmer, Waltham, MA) in duplicate wells, to assemble the final assay plate consisting of duplicated dose ranges. Separately, a protein mixture consisting of His-tagged DCAF15 complex and biotin-carrying RBM39, each at 408 nM (2.04×), was prepared in 50 mM HEPES, pH 7.5, 100 mM NaCl, 2 mM MgCl2, 0.1% BSA, 2 mM TCEP, 0.05% Tween-20 (dilution buffer). 9.8 μL of this protein mixture was then mixed with the compounds in the assay plate and incubated for one hour at room temperature. Reaction mixtures with no compounds added were included as negative controls, while a His-tagged and biotinylated GST protein was included to track general assay performance. Nickel Chelate AlphaLISA Acceptor beads (cat. #AL108M, Perkin Elmer, MA) and AlphaScreen Streptavidin Donor beads (cat. #6760002, Perkin Elmer, Waltham, MA) were prepared separately in the dilution buffer as 4× stocks (80 ug/ml). The beads were then added to the assay plate sequentially with incubation at room temperature for 1-2 hours after each addition. Signals were recorded using EnVision 2104 Multilabel Plate Reader (Perkin Elmer, Waltham, MA) and titration curves were generated in GraphPad Prism (7.00, GraphPad, La Jolla, CA).

DCAF15 = DCAF15 (Homo sapiens (Human), UniProt Q66K64); assay: HTRF competition assay, binary interaction with DCAF15; format: binding; conditions: competition with Alexa Fluor 647 tracer
Method: Example 8: Measurement of Binary Interaction Between Compounds and DCAF15 Using Homogeneous Time Resolved Fluorescence (HTRF)
DCAF15 interactions with test compounds were monitored using HTRF competition assays (Cisbio, Bedford, MA). Test compounds were first collected in a 384-well microplate (cat. #781280, Grenier Bio-One, Monroe, NC) as 10 mM stocks in 100% dimethyl sulfoxide (DMSO). A second stock plate (cat. #781280, Grenier Bio-One, Monroe, NC) was prepared through 3-fold serial dilution in DMSO of the afore-mentioned stocks using a Mosquito HTS dispenser (mosquito@ HTS, SPT Labtech, Boston, MA). 0.2 μL of these diluted stocks were then dispensed into a 384-well Optiplate (cat. #6007290, Perkin Elmer, Waltham, MA) in duplicate wells, to assemble the assay plate. The tracer molecule containing an Alexa Fluor 647 probe was prepared in 25 mM HEPES pH 7.5, 100 mM NaCl, 0.1 mg/ml BSA, 0.005% Tween 20, 0.5 mM TCEP (dilution buffer) to 612 nM (2.04×). Separately, His-tagged DCAF15 complex was prepared at 32 nM (4×) in the dilution buffer, and mAb Anti-6His-Eu cryptate Gold (cat. #61H12KLA, Cisbio, Bedford, MA) at 4× dilution in the detection buffer (cat. #61DB9RDF, Cisbio, Bedford, MA). These two solutions were mixed and incubated for 15 min at room temperature. 9.8 μL of the tracer solution and 10 μL of the DCAF15/mAb Anti-6His-Eu cryptate Gold mixture were added sequentially to each well in the assay plate. Reaction mixtures with no DCAF15 added were included as positive controls. The final mixture was incubated for an hour at room temperature and spun down briefly before data collection at 615 nm and 666 nm using EnVision 2104 Multilabel Plate Reader (Perkin Elmer, Bedford, MA). Binding was estimated based on ratiometric analysis and titration curves were generated in GraphPad Prism (7.00, GraphPad, La Jolla, CA).

Chain of DCAF15 (Q66K64 whole entry): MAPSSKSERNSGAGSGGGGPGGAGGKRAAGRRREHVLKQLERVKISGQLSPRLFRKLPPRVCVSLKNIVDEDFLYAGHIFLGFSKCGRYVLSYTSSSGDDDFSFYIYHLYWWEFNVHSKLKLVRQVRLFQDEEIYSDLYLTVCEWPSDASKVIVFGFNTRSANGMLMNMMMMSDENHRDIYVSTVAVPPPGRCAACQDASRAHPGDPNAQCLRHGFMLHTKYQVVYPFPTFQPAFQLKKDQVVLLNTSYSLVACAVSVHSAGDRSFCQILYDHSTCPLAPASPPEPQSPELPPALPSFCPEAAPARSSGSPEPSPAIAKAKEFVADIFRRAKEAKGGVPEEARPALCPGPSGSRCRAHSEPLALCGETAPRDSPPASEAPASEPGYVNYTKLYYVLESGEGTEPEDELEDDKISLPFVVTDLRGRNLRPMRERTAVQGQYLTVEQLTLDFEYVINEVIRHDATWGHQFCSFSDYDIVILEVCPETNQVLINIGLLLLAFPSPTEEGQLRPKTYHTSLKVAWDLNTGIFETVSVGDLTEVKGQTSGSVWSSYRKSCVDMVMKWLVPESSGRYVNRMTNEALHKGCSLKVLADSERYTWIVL
Chain of DCAF15 (Q16531 whole entry partner): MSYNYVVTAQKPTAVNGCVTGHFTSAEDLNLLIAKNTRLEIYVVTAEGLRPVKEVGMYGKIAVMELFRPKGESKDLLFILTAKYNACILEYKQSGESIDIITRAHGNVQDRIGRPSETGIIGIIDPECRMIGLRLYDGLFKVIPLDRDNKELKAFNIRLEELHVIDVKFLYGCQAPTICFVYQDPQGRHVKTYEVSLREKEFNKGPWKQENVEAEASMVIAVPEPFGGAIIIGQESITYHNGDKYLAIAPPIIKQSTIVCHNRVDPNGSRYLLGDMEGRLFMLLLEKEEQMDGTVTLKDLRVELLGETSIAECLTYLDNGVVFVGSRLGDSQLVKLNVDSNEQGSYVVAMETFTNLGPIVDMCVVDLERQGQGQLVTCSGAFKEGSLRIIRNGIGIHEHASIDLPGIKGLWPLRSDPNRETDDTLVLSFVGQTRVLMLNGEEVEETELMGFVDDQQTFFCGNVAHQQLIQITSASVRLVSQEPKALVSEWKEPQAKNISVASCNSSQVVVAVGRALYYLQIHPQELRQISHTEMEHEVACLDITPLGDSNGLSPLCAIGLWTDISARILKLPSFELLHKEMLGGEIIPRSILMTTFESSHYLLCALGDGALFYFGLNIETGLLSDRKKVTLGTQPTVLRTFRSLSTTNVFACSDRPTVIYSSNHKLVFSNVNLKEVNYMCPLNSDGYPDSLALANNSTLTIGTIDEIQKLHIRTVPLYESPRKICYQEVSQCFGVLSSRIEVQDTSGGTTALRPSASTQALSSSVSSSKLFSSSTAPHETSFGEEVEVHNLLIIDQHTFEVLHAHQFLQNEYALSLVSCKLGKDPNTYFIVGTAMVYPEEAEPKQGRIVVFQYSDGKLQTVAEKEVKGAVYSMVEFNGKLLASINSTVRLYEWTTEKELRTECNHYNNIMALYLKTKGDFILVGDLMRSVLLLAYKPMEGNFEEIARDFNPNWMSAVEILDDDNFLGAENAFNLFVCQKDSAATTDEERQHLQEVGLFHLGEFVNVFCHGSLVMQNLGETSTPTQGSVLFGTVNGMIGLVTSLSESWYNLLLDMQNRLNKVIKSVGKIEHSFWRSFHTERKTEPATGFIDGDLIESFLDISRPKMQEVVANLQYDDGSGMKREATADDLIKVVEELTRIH
Chain of DCAF15/RBM39 (Q66K64 whole entry, species assumed): as the sequence (Q66K64 whole entry) above
Chain of DCAF15/RBM39 (Q14498 whole entry, species assumed): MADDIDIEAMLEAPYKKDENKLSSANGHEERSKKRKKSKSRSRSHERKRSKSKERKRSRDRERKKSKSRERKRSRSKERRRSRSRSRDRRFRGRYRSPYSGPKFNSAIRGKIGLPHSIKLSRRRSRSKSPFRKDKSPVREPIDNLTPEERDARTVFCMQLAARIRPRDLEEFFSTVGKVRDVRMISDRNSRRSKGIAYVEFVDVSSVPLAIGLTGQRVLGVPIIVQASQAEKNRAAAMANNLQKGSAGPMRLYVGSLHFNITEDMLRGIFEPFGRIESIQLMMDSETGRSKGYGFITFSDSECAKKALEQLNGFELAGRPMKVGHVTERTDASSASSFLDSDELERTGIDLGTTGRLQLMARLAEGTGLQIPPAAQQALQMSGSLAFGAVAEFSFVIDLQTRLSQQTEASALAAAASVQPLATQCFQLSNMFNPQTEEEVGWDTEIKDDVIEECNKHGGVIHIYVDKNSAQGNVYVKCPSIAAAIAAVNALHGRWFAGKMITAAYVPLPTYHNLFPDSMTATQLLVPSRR
Chain of DCAF15/RBM39 (Q16531 whole entry partner, species assumed): as the sequence (Q16531 whole entry partner) above

Row | SMILES | EC50 (DCAF15/RBM39) | IC50 (DCAF15)
1 | Cn1cc(S(=O)(=O)Nc2ccc(Cl)c3c(Cl)c[nH]c23)c2ccccc21 [Compound 2] | 1000 to 10000 nM | 
2 | O=S(=O)(Nc1ccc(Cl)c2c(Cl)c[nH]c12)c1cc2cc(F)ccc2s1 [Compound 5] | 1000 to 10000 nM | 
3 | O=C1CCc2ccc(S(=O)(=O)Nc3ccc(Cl)c4c(Cl)c[nH]c34)cc21 [Compound 7] | ≤ 1000 nM | 1 to 10 µM
4 | CC(=O)N[C@H]1Cc2ccc(S(=O)(=O)Nc3ccc(Cl)c4c(Cl)c[nH]c34)cc2C1 [Compound 8] | ≤ 1000 nM | 1 to 10 µM
5 | CC1(C)Cc2cc(S(=O)(=O)Nc3ccc(Cl)c4c(Cl)c[nH]c34)ccc2O1 [Compound 9] | 1000 to 10000 nM | > 100 µM
6 | O=C1OCc2ccc(S(=O)(=O)Nc3ccc(Cl)c4c(Cl)c[nH]c34)cc21 [Compound 10] | ≤ 1000 nM | 1 to 10 µM
7 | O=S(=O)(Nc1ccc(Cl)c2c(Cl)c[nH]c12)c1ccc2occc2c1 [Compound 11] | ≤ 1000 nM | 1 to 10 µM
8 | CC(=O)N1CCc2cc(S(=O)(=O)Nc3ccc(Cl)c4c(Cl)c[nH]c34)ccc21 [Compound 12] | 1000 to 10000 nM | 1 to 10 µM
9 | O=C1Nc2ccc(S(=O)(=O)Nc3ccc(Cl)c4c(Cl)c[nH]c34)cc2C1=O [Compound 14] | 1000 to 10000 nM | 1 to 10 µM
10 | CC(=O)N1Cc2ccc(S(=O)(=O)Nc3ccc(Cl)c4c(Cl)c[nH]c34)cc2C1 [Compound 15] | 1000 to 10000 nM | 1 to 10 µM
11 | CN1C(=O)c2ccc(S(=O)(=O)Nc3ccc(Cl)c4c(Cl)c[nH]c34)cc2C1=O [Compound 16] | 1000 to 10000 nM | 1 to 10 µM
12 | O=S(=O)(Nc1ccc(Cl)c2c(Cl)c[nH]c12)c1ccc2c(c1)OC(F)(F)O2 [Compound 18] | ≤ 1000 nM | 1 to 10 µM
13 | Cn1c(=O)n(C)c2cc(S(=O)(=O)Nc3ccc(Cl)c4c(Cl)c[nH]c34)ccc21 [Compound 19] | 1000 to 10000 nM | 10 to 100 µM
14 | O=c1[nH]c2ccc(S(=O)(=O)Nc3ccc(Cl)c4c(Cl)c[nH]c34)cc2o1 [Compound 21] | 1000 to 10000 nM | 
15 | Cn1c(=O)oc2cc(S(=O)(=O)Nc3ccc(Cl)c4c(Cl)c[nH]c34)ccc21 [Compound 22] | ≤ 1000 nM | 1 to 10 µM
16 | O=C1NS(=O)(=O)c2ccc(S(=O)(=O)Nc3ccc(Cl)c4c(Cl)c[nH]c34)cc21 [Compound 23] | 1000 to 10000 nM | 1 to 10 µM
17 | O=S(=O)(Nc1ccc(Cl)c2c(Cl)c[nH]c12)c1ccc2c(c1)CCCC2 [Compound 24] | 1000 to 10000 nM | > 100 µM
18 | O=S(=O)(Nc1ccc(Cl)c2c(Cl)c[nH]c12)c1ccc2ccccc2c1F [Compound 25] | ≤ 1000 nM | 1 to 10 µM
19 | O=S(=O)(Nc1ccc(Cl)c2c(Cl)c[nH]c12)c1ccc2c(Cl)ccc(Cl)c2c1 [Compound 28] | 10000 to 100000 nM | 

Row | SMILES | EC50 (DCAF15/RBM39) | IC50 (DCAF15)
20 | O=S(=O)(Nc1ccc(Cl)c2c(Cl)c[nH]c12)c1ccc2c(c1)CC[C@@H](C(F)F)O2 [Compound 29] | 1000 to 10000 nM | 10 to 100 µM
21 | O=C1CCOc2ccc(S(=O)(=O)Nc3ccc(Cl)c4c(Cl)c[nH]c34)cc21 [Compound 30] | 1000 to 10000 nM | 
22 | O=C1OCCc2ccc(S(=O)(=O)Nc3ccc(Cl)c4c(Cl)c[nH]c34)cc21 [Compound 31] | ≤ 1000 nM | 1 to 10 µM
23 | O=C(N1CCc2ccc(S(=O)(=O)Nc3ccc(Cl)c4c(Cl)c[nH]c34)cc2C1)C(F)(F)F [Compound 33] | ≤ 1000 nM | 
24 | O=C1NCCc2ccc(S(=O)(=O)Nc3ccc(Cl)c4c(Cl)c[nH]c34)cc21 [Compound 34] | 1000 to 10000 nM | 1 to 10 µM
25 | O=C1CCc2cc(S(=O)(=O)Nc3ccc(Cl)c4c(Cl)c[nH]c34)c(F)cc2N1 [Compound 35] | 1000 to 10000 nM | 1 to 10 µM
26 | CC1(C)CC(=O)Nc2ccc(S(=O)(=O)Nc3ccc(Cl)c4c(Cl)c[nH]c34)cc21 [Compound 36] | ≤ 1000 nM | 1 to 10 µM
27 | O=c1ccc2cc(S(=O)(=O)Nc3ccc(Cl)c4c(Cl)c[nH]c34)ccc2[nH]1 [Compound 37] | ≤ 1000 nM | 1 to 10 µM
28 | O=S(=O)(Nc1ccc(Cl)c2c(Cl)c[nH]c12)c1cc(Br)c2c(c1)OCCO2 [Compound 38] | 1000 to 10000 nM | 1 to 10 µM
29 | O=C1COc2ccc(S(=O)(=O)Nc3ccc(Cl)c4c(Cl)c[nH]c34)cc2N1 [Compound 39] | 1000 to 10000 nM | 
30 | O=C1COc2cc(S(=O)(=O)Nc3ccc(Cl)c4c(Cl)c[nH]c34)ccc2N1 [Compound 40] | ≤ 1000 nM | 
31 | CN1Cc2cc(S(=O)(=O)Nc3ccc(Cl)c4c(Cl)c[nH]c34)ccc2OC1=O [Compound 41] | ≤ 1000 nM | 1 to 10 µM
32 | Cn1c(=O)c2cc(S(=O)(=O)Nc3ccc(Cl)c4c(Cl)c[nH]c34)ccc2n(C)c1=O [Compound 43, N-(3,4-dichloro-1H-indol-7-yl)-1,3-dimethyl-2,4-dioxo-1,2,3,4-tetrahydroquinazoline-6-sulfonamide] | ≤ 1000 nM | 
33 | O=C1COc2cc(S(=O)(=O)Nc3ccc(Cl)c4c(Cl)c[nH]c34)cnc2N1 [Compound 45] | ≤ 1000 nM | 10 to 100 µM
34 | CC(C)(C)OC(=O)N1CCCc2cc(S(=O)(=O)Nc3ccc(Cl)c4c(Cl)c[nH]c34)ccc2C1 [Compound 46] | 1000 to 10000 nM | 
35 | CC(C)(C)OC(=O)N1CCCc2cc(S(=O)(=O)Nc3ccc(Cl)c4c(Cl)c[nH]c34)ccc2C1 [Compound 47] | ≤ 1000 nM | 1 to 10 µM
36 | O=C1NCCOc2ccc(S(=O)(=O)Nc3ccc(Cl)c4c(Cl)c[nH]c34)cc21 [Compound 48] | ≤ 1000 nM | 1 to 10 µM
37 | O=C1CCSc2ccc(S(=O)(=O)Nc3ccc(Cl)c4c(Cl)c[nH]c34)cc2N1 [Compound 49] | ≤ 1000 nM | 1 to 10 µM
